Measurements from BindingDB's records for doi:10.1016/s0223-5234(00)01171-5 (Clinical Research Institute of Montreal, 2000).
Several values for one entry are separate records, joined by “and”; a condition that tells them apart may be missing. Identical values can stand only once.

What was measured:
[1] = target: Kappa-type opioid receptor (Cavia porcellus, UniProt P41144)
Mu-type opioid receptor = Mu-type opioid receptor (Cavia porcellus, UniProt P97266)
[2] = target: Delta-type opioid receptor (Mus musculus, UniProt P32300)
Delta-type opioid receptor, sequence (P32300 whole entry): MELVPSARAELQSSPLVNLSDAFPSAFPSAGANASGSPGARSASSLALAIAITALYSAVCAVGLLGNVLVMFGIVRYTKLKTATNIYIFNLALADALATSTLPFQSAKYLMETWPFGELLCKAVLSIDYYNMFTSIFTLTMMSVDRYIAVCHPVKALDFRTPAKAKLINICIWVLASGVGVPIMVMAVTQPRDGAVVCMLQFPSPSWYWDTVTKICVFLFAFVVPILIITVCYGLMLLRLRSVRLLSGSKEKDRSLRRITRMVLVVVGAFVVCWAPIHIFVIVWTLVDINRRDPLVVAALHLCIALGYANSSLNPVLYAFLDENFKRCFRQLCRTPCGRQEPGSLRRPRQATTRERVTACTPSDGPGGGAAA

Kappa-type opioid receptor, sequence (P41144 whole entry): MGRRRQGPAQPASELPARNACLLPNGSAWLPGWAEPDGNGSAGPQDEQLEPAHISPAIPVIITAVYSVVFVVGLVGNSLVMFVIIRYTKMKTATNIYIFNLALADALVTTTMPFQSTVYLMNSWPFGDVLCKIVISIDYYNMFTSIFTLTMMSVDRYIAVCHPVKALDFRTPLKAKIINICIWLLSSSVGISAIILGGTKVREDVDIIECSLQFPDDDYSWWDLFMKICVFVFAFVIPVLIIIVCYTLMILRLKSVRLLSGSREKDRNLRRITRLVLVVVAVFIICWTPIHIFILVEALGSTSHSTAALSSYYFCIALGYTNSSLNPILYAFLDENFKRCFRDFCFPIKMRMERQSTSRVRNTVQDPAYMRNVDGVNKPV
Mu-type opioid receptor, sequence (P97266 whole entry): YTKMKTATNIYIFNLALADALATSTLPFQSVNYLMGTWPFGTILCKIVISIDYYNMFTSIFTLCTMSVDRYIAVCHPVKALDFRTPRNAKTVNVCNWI

Compound	Ki [1] [nM]	Ki (Mu-type opioid receptor) [nM]	Ki [2]
NCCCC[C@H](NC(=O)[C@H](Cc1ccccc1)NC(=O)[C@@H](CCCN=C(N)N)NC(=O)[C@@H](N)Cc1ccc(O)cc1)C(N)=O [NSC_122222]	4230	1.69	
CN[C@@H](Cc1c(C)cc(O)cc1C)C(=O)N[C@H](CCCN=C(N)N)C(=O)N[C@@H](Cc1ccccc1)C(=O)N[C@@H](CCCCN)C(N)=O [Tmt-D-Arg-Phe-Lys-NH2]	46.1	0.192	543 nM
Cc1cc(O)cc(C)c1C[C@H](N)C(=O)N[C@H](CCCN=C(N)N)C(=O)N[C@@H](Cc1ccccc1)C(=O)N[C@@H](CCCN)C(N)=O [Dmt-d-Arg-Phe-Orn-NH2]	26.3	0.151	1240 nM
Cc1cc(O)cc(C)c1C[C@H](N)C(=O)N[C@H](CCCN=C(N)N)C(=O)N[C@@H](Cc1ccccc1)C(=O)N[C@@H](CCN)C(N)=O [H-Dmt-D-Arg-Phe-A2bu-NH2]	47.5	0.803	6130 nM
Cc1cc(O)ccc1C[C@H](N)C(=O)N[C@H](CCCN=C(N)N)C(=O)N[C@@H](Cc1ccccc1)C(=O)N[C@@H](CCCCN)C(N)=O [H-Hmt-D-Arg-Phe-Lys-NH2 II]			> 10000 nM and 2320 nM
